Measurements reported in US11096948B2, “Methods for treating helicobacter infection” (DEXCEL PHARMA TECHNOLOGIES LTD., priority 2016, dated 2021).
“And” between values parts separate entries of the source, which are not always exact repeats. Equal entries are not always repeated.

Assays:
[1] = tested on: H. pylori; details: cited from earlier work
[2] = tested on: different strains of H. pylori; assay: In vitro studies against different strains of H. pylori; format: cell-based, Helicobacter pylori
Text: The present disclosure is based in part on the unexpected finding of bacteriostatic and/or bacteriocidic action of fusidic acid or a pharmaceutically acceptable salt or solvate thereof (e.g. sodium fusidate) against H. pylori. […] This finding provides a significant advantage over the hitherto known treatments, by increasing the percentage of patients in which eradication is achieved, reducing doses and side effects of conventional add-on therapy, preserving gut microbiota, and decreasing exposure to conventional antibiotics thereby decreasing antibiotic resistance. In addition, fusidic acid and/or salts and solvates thereof have no cross-resistance with the existing antibiotics used for the treatment of H. pylori and have low probability for developing resistance.

[3] = tested on: H. pylori ATCC No. 43826; assay: Disk diffusion susceptibility of H. pylori to sodium fusidate; format: cell-based, Helicobacter pylori; details: 4 days at 37° C., sample No. = replicate disk
Method: (§1) In vitro testing for the susceptibility of H. pylori to sodium fusidate was performed. Inoculation was made with a broth culture of two ATCC strains of H. pylori (ATCC No. 700824 and 43826) diluted to match a 0.5 McFarland turbidity standard. Disks containing increasing antibiotic concentrations (0.5-4.0%) were placed on seeded bacterial lawn on agar surface. Three disks with the same antibiotic concentration were placed on each plate. The disks were evenly distributed in a circle towards the periphery of the plate. Plates were incubated for 4 days at an incubation temperature of 37° C. (with Microaerophilic pach). Diameter of inhibition sizes was measured wherein each disk was considered to represent the center of the clear zone, namely the slope of the regression line is construed to correspond to the diffusion coefficient of the antibiotic in the agar. Negative control disks containing water instead of antibiotics were placed at the center of each dish. A separate plate with no disks was prepared as an additional control. […]

[4] = tested on: H. pylori ATCC No. 700824; assay: as above; format: cell-based, Helicobacter pylori; details: 4 days at 37° C., sample No. = replicate disk
Method: as §1

[5] = sodium fusidate con. 0.5% on disk
[6] = sodium fusidate con. 1.0% on disk
[7] = sodium fusidate con. 4.0% on disk

In the case of `CC(=O)O[C@H]1C[C@@]2(C)[C@@H](C[C@@H](O)[C@H]3[C@@]4(C)CC[C@@H](O)[C@@H](C)[C@@H]4CC[C@@]32C)/C1=C(\CCC=C(C)C)C(=O)O` [fusidic acid, 29-Nordammara-17(20),24-dien-21-oic acid, 16-(acetyloxy)-3,11-dihydroxy-, (3α, 4α, 8α, 9α, 11α, 13α, 14β, 16β, 17Z)-], the “Efficacy as monotherapy against H. pylori” value [1] is given as “ineffective” and the “Activity against different strains of H. pylori” value [2] is given as “active”.

For `CC(=O)O[C@H]1C[C@@]2(C)[C@@H](C[C@@H](O)[C@H]3[C@@]4(C)CC[C@@H](O)[C@@H](C)[C@@H]4CC[C@@]32C)/C1=C(\CCC=C(C)C)C(=O)O` [Sodium fusidate, sodium fusidate], the “Activity against different strains of H. pylori” value [2] was “active”, the Diameter of inhibition [3, 5] was at least 4.4 cm and the Diameter of inhibition [3, 6] was at least 4.4 cm. The Diameter of inhibition [3, 7] was at least 4.4 cm, the Diameter of inhibition [4, 5] was 1.6 cm and 2 cm and 2.4 cm and the Diameter of inhibition [4, 6] was 2.7 cm and 2.6 cm and 3.0 cm. The Diameter of inhibition [4, 7] was at least 4.4 cm.
